In patent publication US20160326142A1, “PYRAZOLE CARBOXAMIDE COMPOUNDS, COMPOSITIONS AND METHODS OF USE” (Genentech, Inc., priority 2012, published 2016) one finds Ki data, which are given here for eleven compounds.

The target of this assay is T1, ITK (Homo sapiens, UniProt Q08881).
T1 construct: purchased Invitrogen PV3875
T1 sequence (Q08881 1-620): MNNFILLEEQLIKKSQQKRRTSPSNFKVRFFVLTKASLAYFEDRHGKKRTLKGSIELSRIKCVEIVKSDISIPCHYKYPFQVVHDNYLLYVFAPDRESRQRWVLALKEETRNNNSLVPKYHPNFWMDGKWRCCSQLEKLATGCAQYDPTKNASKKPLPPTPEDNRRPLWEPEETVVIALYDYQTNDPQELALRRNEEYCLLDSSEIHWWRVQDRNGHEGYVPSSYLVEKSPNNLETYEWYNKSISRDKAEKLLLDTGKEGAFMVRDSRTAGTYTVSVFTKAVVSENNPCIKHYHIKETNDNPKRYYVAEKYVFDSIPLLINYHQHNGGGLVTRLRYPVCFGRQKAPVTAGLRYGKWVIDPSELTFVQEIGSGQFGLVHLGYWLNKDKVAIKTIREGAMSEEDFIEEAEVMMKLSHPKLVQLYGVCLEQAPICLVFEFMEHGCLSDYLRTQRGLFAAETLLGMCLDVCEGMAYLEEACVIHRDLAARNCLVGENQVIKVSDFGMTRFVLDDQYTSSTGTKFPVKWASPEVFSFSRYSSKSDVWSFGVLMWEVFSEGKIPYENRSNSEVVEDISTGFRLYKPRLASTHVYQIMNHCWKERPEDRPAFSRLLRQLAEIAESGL
Briefly: ITK enzyme assay (Caliper or LCMS peptide phosphorylation). It counts as biochemical. The following applies: purified ITK (Invitrogen PV3875), 20 μM ATP, Ki by Morrison's quadratic equation. The method in brief: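 Ki values come from Morrison quadratic fits of activity versus inhibitor concentration, adjusted for ATP-competitive inhibition against ATP/Km,app. Substrate and phosphopeptide from purified ITK reactions were resolved either microfluidically (Caliper, EDTA stop) or by LC-MS MRM (TCA stop).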
For `CC12Cc3[nH]nc(C(=O)Nc4cnn(C(c5ccccc5)C5CC[S+]([O-])CC5)c4)c3CC1C2(F)F` (single isomer, unassigned) [Example 142a, 5,5-difluoro-5a-methyl-N-(1-((1-oxidotetrahydro-2H-thiopyran-4-yl)(phenyl)methyl)-1H-pyrazol-4-yl)-1,4,4a,5,5a,6-hexahydrocyclopropa[f]indazole-3-carboxamide], the Ki was less than 0.1 nM.
For the compound `CC1(C)CCc2c(C(=O)Nc3cnn(C(c4ccccc4)C4CCOCC4)c3)n[nH]c2C1` (single isomer, unassigned) [Example 113b, 6,6-dimethyl-N-(1-(phenyl(tetrahydro-2H-pyran-4-yl)methyl)-1H-pyrazol-4-yl)-4,5,6,7-tetra hydro-1H-indazole-3-carboxamide], the affinity corresponds to a Ki of 0.3 nM.
`CN(CCC(c1ccccc1)n1cc(NC(=O)c2n[nH]c3c2CCC(C)(C)C3)cn1)C1COC1` (single isomer, unassigned) [Example 58b, 6,6-dimethyl-N-(1-(3-(methyl(oxetan-3-yl)amino)-1-phenylpropyl)-1H-pyrazol-4-yl)-4,5,6,7-tetrahydro-1H-indazole-3-carboxamide] came in with an inhibitory constant (Ki) of 0.6 nM.
The result for `CC1CCc2[nH]nc(C(=O)Nc3cnn(Cc4ccccc4)c3)c2C1` (single isomer, unassigned) [Example 8a, N-(1-benzyl-1H-pyrazol-4-yl)-5-methyl-4,5,6,7-tetrahydro-1H-indazole-3-carboxamide] reads 70 nM; that for `O=C(Nc1cnn(Cc2ccccc2)c1)c1n[nH]c2c1C1CC1CC2` (single isomer, unassigned) [Example 23b, N-(1-benzyl-1H-pyrazol-4-yl)-3,4,5,5a,6,6a-hexahydrocyclopropa[e]indazole-1-carboxamide], 550 nM; that for `CN1CCC(C(c2ccccc2)n2cc(NC(=O)c3n[nH]c4c3CCC(C)(C)C4)cn2)CC1` (single isomer, unassigned) [Example 43b, 6,6-dimethyl-N-(1-((1-methylpiperidin-4-yl)(phenyl)methyl)-1H-pyrazol-4-yl)-4,5,6,7-tetrahydro-1H-indazole-3-carboxamide], 6.2 nM.
In the case of `CC1CC(C(c2ccccc2)n2cc(NC(=O)c3n[nH]c4c3CCC(C)(C)C4)cn2)CCS1(=O)=O` (single isomer, unassigned) [Example 139h, 6,6-dimethyl-N-(1-((2-methyl-1,1-dioxidotetrahydro-2H-thiopyran-4-yl)(phenyl)methyl)-1H-pyrazol-4-yl)-4,5,6,7-tetrahydro-1H-indazole-3-carboxamide], the inhibitory constant (Ki) was determined as 12 nM.
Consider `O=C(Nc1cnn(Cc2ccccc2)c1)c1n[nH]c2c1CC1(COC1)C2` [Example 82, N-(1-benzyl-1H-pyrazol-4-yl)-4,6-dihydro-1H-spiro[cyclopenta[c]pyrazole-5,3′-oxetane]-3-c arboxamide], for which the Ki was determined as 61 nM.
The result for `CN(C)CCC(c1ccccc1)n1cc(NC(=O)c2n[nH]c3c2CC2CC2C3)cn1` (single isomer, unassigned) [Example 28a, N-(1-(3-(dimethylamino)-1-phenylpropyl)-1H-pyrazol-4-yl)-1,4,4a,5,5a,6-hexahydrocyclopropa[f]indazole-3-carboxamide] reads 16 nM; that for `Cc1cccc(C(C2CNC2)n2cc(NC(=O)c3n[nH]c4c3CCC(C)(C)C4)cn2)c1` (single isomer, unassigned) [Example 47b, N-(1-(azetidin-3-yl(m-tolyl)methyl)-1H-pyrazol-4-yl)-6,6-dimethyl-4,5,6,7-tetrahydro-1H-indazole-3-carboxamide], 9 nM.
With `CC1(C)CCc2c(C(=O)Nc3cnn(C(c4cccnc4)C4CCOCC4)c3)n[nH]c2C1` (single isomer, unassigned) [Example 88a, 6,6-dimethyl-N-(1-(pyridin-3-yl(tetrahydro-2H-pyran-4-yl)methyl)-1H-pyrazol-4-yl)-4,5,6,7-tetrahydro-1H-indazole-3-carboxamide] the figure was 0.1 nM.

Usually Ki stands for the equilibrium dissociation constant of an inhibitor or competing ligand from its target.
